# Experimental data published in a melting point compilation (Tetko et al.; mined from patent text by program, amines drawn as free bases though some values may be those of a salt).
row,SMILES,melting point [°C]
1,O=C1N(Cc2ccc(C(F)(F)F)o2)c2c(C(F)(F)F)cccc2C12COc1cc3c(cc12)OCO3 (configuration not stated),95 to 98
2,CC1(C)CC(O)C(C)(C)c2cc(Cn3cccn3)c(/C=C/c3ccc(C(=O)O)cc3)cc21 (configuration not stated),242
3,CC(C)Oc1ccc(OCc2ccccc2)cc1-c1nc2cc(C=O)cnc2[nH]1,170 to 171
4,Cc1ccc(S(=O)(=O)OC2CCc3[nH]c4ccccc4c3C2)cc1 (configuration not stated),148 to 151
5,CCC#CCOc1ccc(C=O)cc1OC,47 to 50
6,Cc1ccc2c(C(=O)NC3CN4CCC3CC4)cnn2c1 (configuration not stated),142 to 144
7,COc1ccc(CNc2cc(F)cc(CO)c2)cc1,93
8,CCCCCCCCCCCCCCCCCCOc1ccc(C(=O)C(Sc2nnnn2-c2ccccc2)c2ccc([N+](=O)[O-])cc2)cc1 (configuration not stated),82 to 95
9,CN(C)C=NS(=O)(=O)c1ccc(Br)s1,103 to 105
10,COc1ccc2c(C)c3c(c(-c4ccc(F)cc4)c2c1)CNC3=O,236 to 238
11,O=C(O)CC[C@H](NCC(O)C(O)C(O)C(O)C(=O)O)C(=O)O (some centres not stated),90
12,C=C1C[C@@H]2[C@H](CC[C@]3(C)C(=O)CC[C@@H]23)[C@@]2(C)CCC(=O)C(SCC)=C12,140 to 145
13,CCNC(=S)C1=CC(C)(C)Oc2ccc(C#N)cc21,151 to 153
14,O=C1Nc2ccccc2OCC1N1C(=O)c2ccccc2C1=O (configuration not stated),188 to 193
15,COC(=O)C(C)(C)OCC#Cc1cc(Cl)ccc1NS(=O)(=O)c1ccc(OC)cc1,98 to 100
16,Cc1cc(Oc2ccc([N+](=O)[O-])cc2)n[nH]1,124 to 125
17,CC1(C)CC(O)CC(C)(C)N1CC(O)c1ccccc1 (configuration not stated),123
18,O=S(=O)(CS(=O)(=O)C1CCCCC1)C1CCCCC1,137 to 139
19,CSc1ccc2c(c1)C(SCCBr)Cc1ccccc1O2 (configuration not stated),64 to 66
20,O=C(O)C1CSC(c2ccccc2O)N1 (configuration not stated),169
21,COc1cc(OC)c(-c2cccn2C(=O)OC(C)(C)C)cc1/C=C/C(=O)c1ccc(C(=O)O)cc1,205 to 207

row,SMILES,melting point [°C]
1,CCCCCCC(C)(C)c1ccc(C2(O)CCCNC2)c(O)c1 (configuration not stated),147
2,CN(Cc1ccc(NC(=O)C2=Cc3cc(-c4ccc(C(C)(C)C)cc4)ccc3OCC2)cc1)C1CCOCC1,193 to 194
3,CC(=O)Nc1ccc2[nH]c(C(=O)N3CC(CCl)c4c3cc(N)c3ccccc43)cc2c1 (configuration not stated),> 300
4,O=C(O)Cc1ccc(SCCNC(=O)C2Cc3ccccc3N2S(=O)(=O)c2ccc(-c3cccc(C(F)(F)F)c3)cc2)c(Cl)c1 (configuration not stated),70
5,CS(=O)(=O)c1ccc(-c2cnn(CC(F)(F)F)c(=O)c2SCC(F)(F)F)cc1,155 to 158
6,C#CCOc1ccc2ccc(NC(=O)c3ccc(OC)cc3)nc2n1,140
7,O=C(c1ccn2c1CSC2c1cccnc1)c1cn(C(=O)NCCc2c[nH]cn2)c2cc(-c3ccc(F)cc3)ccc12 (configuration not stated),156 to 158
8,CCN1CCC(c2ccccc2)=C(C(=O)OCC2CCCCC2)C1,94 to 97
9,CC(=O)Oc1ccc(C2=CC(C)(C)c3ccccc3O2)cc1,84 to 86
10,COC(=O)Cc1csc(NC(C)=O)n1,122 to 123
11,CC(=O)O[C@@H](Cc1ccc(OCCN2CCC(C)(C)c3cc(C(=O)c4ccccc4)ccc32)cc1)C(=O)O,60 to 62
12,O=C(O)Cc1cccc(C(=O)c2ccc(O)cc2)c1,147 to 149
13,FC(F)(F)c1cc(I)ccc1-c1ccc(I)cc1C(F)(F)F,119 to 120
14,Cc1ccc(C(=O)NC/C=C/c2ccccc2)cc1,134
15,Nc1nc(N)nc(-c2cccc(S(N)(=O)=O)c2)n1,> 290
16,CC(C)(C)OC(=O)C(O)CC1CCC(=O)N1 (configuration not stated),110 to 112
17,CC(=C1SC(=O)NC1=O)c1ccc(OCCCOc2c(-c3ccc(F)cc3)n(C)c3ccccc3c2=O)c(Cl)c1,232 to 234
18,CCC(Oc1ccc(C)c(C)c1)C(=O)OC1CC(O)C=C2C=CC(C)C(CCC3CC(O)CC(=O)O3)C21 (mixture of isomers),137 to 139
19,CCOC(=O)c1c(C)nsc1NC(=O)NC(C)C,175 to 176
20,COc1cc(C(C)=O)cc(C#N)c1OC,125 to 126
21,CC(=O)C(=O)c1ccc(NS(C)(=O)=O)c(Sc2ccc(F)cc2F)c1,108 to 109

# Further lines, results first:
row,melting point [°C],SMILES
1,215 to 216,CC(C)Cn1c(CNC(=O)C2CC2)nc2c(N)nc3ccccc3c21
2,151,CCCC1=NN(c2ccccn2)C(=O)C1=CNc1ccccc1CC
3,189,Cc1cc(C#N)cc(C(=O)Nc2ccc(F)cc2)n1
4,205 to 206,Cc1cc(Cn2nnc(C(N)=O)c2N)cc(Cl)c1C(=O)c1ccc(Cl)cc1
5,99 to 101,COc1ccc(C2SCCCS2)cc1OC
6,155,CS(=O)(=O)c1c(O)c2cccnc2n(Cc2ccccc2)c1=O
7,158 to 159,O=C1CC(O)CN1S(=O)(=O)c1ccc(N2CCCCC2)cc1 (configuration not stated)
8,168 to 170,CSc1ccc(-c2nc(=O)c3ccccc3s2)cn1
9,159 to 161,"CC(=O)NCC1CC(c2ccc(-n3ccc(C#N)c3)c(F)c2)=NO1 (single isomer, unassigned; (-))"
10,116 to 118,N#CC1(CCc2ccccc2)CCCCCN1C(=O)c1ccccc1 (configuration not stated)
11,243 to 245,N#Cc1ccc2c(c1)NC(=O)CO2
12,189 to 192,CCCc1nc2c(N)nc3cc(OCc4ccc(F)cc4)ccc3c2s1
13,67 to 68,COc1cc(CCCl)cc2c1OCO2
14,107,COC=C(C(=O)OC)c1c(OC)ncnc1Oc1cccc(C)c1
15,123 to 125,O=S(=O)(NCC1CCN(CCCOc2ccc(F)cc2)CC1)c1cccc2cnccc12
16,156 to 158,CN1C(=O)N(c2ccccc2Br)Cc2cnc(Nc3ccc4c(c3)OCC(CO)O4)nc21 (configuration not stated)
17,187 to 190,CC1(C)O[C@@H]2[C@@H](O1)[C@H](C(=O)O)O[C@H]2n1cnc2c(N)nc(I)nc21
18,44 to 52,O=C(Cl)N1CC(Oc2ccc(F)cc2)C1
19,170 to 172,Clc1c[nH]c2ncnc(N3CCCCC3)c12
20,174 to 175,CCC(C)NC(=O)C1=C(C(=O)Nc2cc(OC3CCCC3)c(Cl)cc2F)CCCC1 (configuration not stated)
21,207 to 209,O=C/C=C/c1cc2cc(Cl)ccc2[nH]1
22,360,NS(=O)(=O)c1cc2[nH]c(-c3nc4cc(Cl)c(S(N)(=O)=O)cc4[nH]3)nc2cc1Cl
23,260 to 262,COc1cc2c(cc1OC)-c1cc(=O)n(C)c(=O)n1CC2
24,215 to 217,CCOC(=O)c1cn(-c2nc(NC(C)(C)C)c(F)cc2F)c2c(Cl)c(F)c(F)c([N+](=O)[O-])c2c1=O
25,70 to 80,N=C(NCc1ccccc1)NN=Cc1c(Cl)cccc1Cl
26,119 to 122,CC(=O)Oc1ccc(C=C2CCCc3cc(C)cnc32)cc1
27,156 to 159,O=C(O)c1c[nH]c(Sc2ccc(Cl)c(Cl)c2)c1
28,203 to 205,N#Cc1cnc2cc(-c3csc(CN4CCOCC4)c3)ccc2c1Nc1ccc(Cl)cc1Cl
29,155 to 156,CC(C)C(=O)c1ccc2oc3ncccc3c(=O)c2c1
30,121 to 124,CC(=NS(=O)(=O)C=Cc1c(Cl)cccc1Cl)NC1CC1
